{
  "source": "patent US6410561B1",
  "about": "“Amide derivatives and nociceptin antagonists” (Japan Tobacco Inc., priority 1998, dated 2002)",
  "key": {"ORL-1 receptor": {"target": "T1, ORL-1 receptor (Homo sapiens, UniProt P41146)", "T1 construct": "expressed in transfected cells", "test": "ORL1 receptor binding assay ([3H]nociceptin)", "settings": "for Ki: calculated from IC50 and Kd of [3H]nociceptin; for IC50: membrane of human ORL-1 expression cells, [3H]nociceptin 0.5 nM", "description": "ORL1 Receptor Binding Assay\nA cell membrane suspension obtained from human ORL-1 expression cells was adjusted with Tris buffer [50 mM Tris, 2 mM EDTA, 0.1 mM (p-Amidinophenyl)methanesulfonyl Fluoride Hydrochloride (p-APMSF), 2 mg/ml BSA] to membrane protein amount of about 25 μg/ml (2.5 μg/well). This was mixed with [^3H]nociceptin (diluted with Tris buffer to a final concentration of 0.5 nM) and test compound (diluted with Tris buffer to a final concentration of 10 nM-10 μM), and the mixture was incubated at room temperature for 60 min. The membrane was recovered on a G/F-B filter (Packard, Unifilter 96GF/B) using a cell harvester and the reaction was stopped. After washing 3 times, the filter was dried at 42° C. for 1 hr. A scintillation solution (Packard, microscint-20) was added and the radioactivity (Packard, Top count A9912V) was assayed.\n(§1) The nonspecific binding was the binding in the presence of 1 μM nociceptin and the difference between the total binding and nonspecific binding was taken as the specific binding. IC50 was calculated from inhibition of specific binding at each concentration of the compound, and Ki value of the test compound was calculated from this value and Kd value of [^3H]nociceptin."}, "μ receptor": {"target": "T2, μ receptor (Rattus norvegicus, UniProt P33535)", "T2 construct": "Rat cerebrum membrane standard sample; from tissue; host or cells: rat cerebrum membranes", "T2 sequence (P33535 whole entry)": "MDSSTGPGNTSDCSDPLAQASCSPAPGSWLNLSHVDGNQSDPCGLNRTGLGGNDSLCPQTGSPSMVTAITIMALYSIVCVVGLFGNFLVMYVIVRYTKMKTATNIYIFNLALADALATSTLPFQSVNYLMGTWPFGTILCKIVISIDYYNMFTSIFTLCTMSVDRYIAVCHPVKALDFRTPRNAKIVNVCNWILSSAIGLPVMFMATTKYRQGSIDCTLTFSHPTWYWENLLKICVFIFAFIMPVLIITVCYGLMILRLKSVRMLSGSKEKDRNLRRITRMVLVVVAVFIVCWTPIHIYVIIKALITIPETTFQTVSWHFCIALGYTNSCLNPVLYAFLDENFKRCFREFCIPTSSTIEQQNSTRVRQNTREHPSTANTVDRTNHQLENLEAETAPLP", "test": "μ receptor binding assay ([3H]DAMGO)", "settings": "for Ki: calculated from IC50 and Kd of [3H]DAMGO; for IC50: rat cerebrum membrane, [3H]DAMGO 1 nM", "description": "Rat cerebrum membrane standard sample (final concentration 0.755 mg·protein/ml), [^3H]DAMGO (Try-D-Ala-Gly-NMe-Phe-Gly-ol) [diluted with Tris buffer (50 mM Tris-HCl, 0.1 mM p-APMSF, 2 mg/ml BSA (pH=7.4)) to a final concentration of 1 nM] and test compound (diluted with Tris buffer to a final concentration of 10 nM-10 μM) were mixed, and the mixture was incubated at room temperature for 90 min. The membrane was recovered on a G/F-B filter (same as above) using a cell harvester and the reaction was stopped. After washing 3 times, the filter was dried at 42° C. for 1 hr. A scintillation solution (same as above) was added and the radioactivity (same as above) was assayed.\nas §1, with “10” for “1”, “naloxone” for “nociceptin”, “[^3H]DAMGO.” for “[^3H]nociceptin.”"}, "allodynia model": {"test_system": "allodynia model", "test": "Allodynia test (intrathecal nociceptin, tactile stimulation)", "assay_type": "in vivo, Mice", "settings": "Mus musculus; mice, oral, 60 min before nociceptin 50 pg i.t.; score at 20 min; read-out: Allodynia M.E.D. (minimum effective dose)", "description": "Mice (Crj, ICR, 4-week-old, male) were intrathecally administered with nociceptin (50 pg/5 μl) without anesthesia. For 20 min after administration and at 5 min intervals, an area from lateral region to tail of the mice was rubbed with a brush and the response of the mice was observed. The evaluation followed the criteria of 0; no change, 1; run or cry upon tactile stimulation, and 2; cry loud or dash away upon tactile stimulation. The test compound was suspended in a 0.5% MC solution and orally administered 60 min before nociceptin administration. The significant difference of the score of each administration group at 20 min after nociceptin administration from the group administered with solvent was analyzed with Mann-Whitny U-test."}, "Mice": {"test_system": "Mice", "test": "Hot-plate test", "assay_type": "in vivo", "settings": "Mus musculus, 1 h, oral, 60 min after administration, 55.5°C, read-out: Hot-plate M.E.D. (minimum effective dose)", "description": "Mice (Crj, ICR, 4-week-old, male) were placed on a hot-plate (temperature 55.5±0.5° C.) and the time until the mice jumped and tried to run away was recorded. The mice were grouped according to the time and body weight so that the groups were evenly membered. The test compound was suspended in a 0.5% methylcellulose (MC) solution and orally administered to mice. After 60 min, the mice were again placed on a hot-plate and the time until they licked the hindlimb or jumped and tried to run away was recorded. The significant difference from the group administered with solvent was analyzed with ANOVA followed by Dunnett two-tailed test."}},
  "data": [
    {"smiles": "Cc1cc(N)c2cc(NC(=O)c3ccccc3COc3ccc(C#N)cc3)ccc2n1.Cl", "note": "[Example 16, N-(4-amino-2-methyl-6-quinolyl)-2-[(4-cyanophenoxy)methyl]benzamide hydrochloride]", "values": [
      {"measurement": "Ki", "setting": "ORL-1 receptor", "result": 6, "unit": "nM"},
      {"measurement": "IC50", "setting": "ORL-1 receptor", "result": 110, "unit": "nM"},
      {"measurement": "Ki", "setting": "μ receptor", "result": 259, "unit": "nM"},
      {"measurement": "IC50", "setting": "μ receptor", "result": 690, "unit": "nM"},
      {"measurement": "minimal effective dose", "setting": "allodynia model", "result": 0.1, "unit": "mg/kg"},
      {"measurement": "minimal effective dose", "setting": "Mice", "result": 3, "unit": "mg/kg"},
      {"measurement": "melting point", "result": 286, "unit": "°C"}
    ]},
    {"smiles": "Cc1cc(N)c2cc(NC(=O)c3ccccc3COc3ccc(C(F)(F)F)cc3)ccc2n1.Cl", "note": "[Example 18, N-(4-amino-2-methyl-6-quinolyl)-2-[(4-trifluoromethylphenoxy)methyl]benzamide hydrochloride]", "values": [
      {"measurement": "Ki", "setting": "ORL-1 receptor", "result": 4, "unit": "nM"},
      {"measurement": "IC50", "setting": "ORL-1 receptor", "result": 90, "unit": "nM"},
      {"measurement": "Ki", "setting": "μ receptor", "result": 393, "unit": "nM"},
      {"measurement": "IC50", "setting": "μ receptor", "result": 1040, "unit": "nM"},
      {"measurement": "minimal effective dose", "setting": "allodynia model", "result": 0.3, "unit": "mg/kg"},
      {"measurement": "melting point", "result": 220, "unit": "°C"}
    ]},
    {"smiles": "Cc1cc(N)c2cc(NC(=O)c3ccccc3COc3ccc(Br)cc3)ccc2n1.Cl", "note": "[Example 33, N-(4-amino-2-methyl-6-quinolyl)-2-[(4-bromophenoxy)methyl]benzamide hydrochloride]", "values": [
      {"measurement": "Ki", "setting": "ORL-1 receptor", "result": 5, "unit": "nM"},
      {"measurement": "IC50", "setting": "ORL-1 receptor", "result": 90, "unit": "nM"},
      {"measurement": "Ki", "setting": "μ receptor", "result": 565, "unit": "nM"},
      {"measurement": "IC50", "setting": "μ receptor", "result": 1440, "unit": "nM"},
      {"measurement": "minimal effective dose", "setting": "allodynia model", "result": 0.3, "unit": "mg/kg"},
      {"measurement": "melting point", "result": 252, "unit": "°C"}
    ]},
    {"smiles": "CCCc1ccc(OCc2ccccc2C(=O)Nc2ccc3nc(C)cc(N)c3c2)cc1.Cl", "note": "[Example 34, N-(4-amino-2-methyl-6-quinolyl)-2-[(4-propylphenoxy)methyl]benzamide hydrochloride]", "values": [
      {"measurement": "Ki", "setting": "ORL-1 receptor", "result": 8, "unit": "nM"},
      {"measurement": "IC50", "setting": "ORL-1 receptor", "result": 140, "unit": "nM"},
      {"measurement": "Ki", "setting": "μ receptor", "result": 888, "unit": "nM"},
      {"measurement": "IC50", "setting": "μ receptor", "result": 2370, "unit": "nM"},
      {"measurement": "minimal effective dose", "setting": "allodynia model", "result": 0.3, "unit": "mg/kg"},
      {"measurement": "minimal effective dose", "setting": "Mice", "result": 3, "unit": "mg/kg"}
    ]},
    {"smiles": "Cc1cc(N)c2cc(NC(=O)c3ccccc3COc3ccc(Cl)c(C)c3)ccc2n1.Cl", "note": "[Example 42, N-(4-amino-2-methyl-6-quinolyl)-2-[(4-chloro-3-methylphenoxy)methyl]benzamide hydrochloride]", "values": [
      {"measurement": "Ki", "setting": "ORL-1 receptor", "result": 4, "unit": "nM"},
      {"measurement": "IC50", "setting": "ORL-1 receptor", "result": 80, "unit": "nM"},
      {"measurement": "Ki", "setting": "μ receptor", "result": 745, "unit": "nM"},
      {"measurement": "IC50", "setting": "μ receptor", "result": 1990, "unit": "nM"},
      {"measurement": "minimal effective dose", "setting": "allodynia model", "result": 0.3, "unit": "mg/kg"},
      {"measurement": "minimal effective dose", "setting": "Mice", "result": 1, "unit": "mg/kg"}
    ]},
    {"smiles": "Cc1ccc(OCc2ccccc2C(=O)Nc2ccc3nc(C)cc(N)c3c2)c(Cl)c1.Cl", "note": "[Example 43, N-(4-amino-2-methyl-6-quinolyl)-2-[(2-chloro-4-methylphenoxy)methyl]benzamide hydrochloride]", "values": [
      {"measurement": "Ki", "setting": "ORL-1 receptor", "result": 5, "unit": "nM"},
      {"measurement": "IC50", "setting": "ORL-1 receptor", "result": 110, "unit": "nM"},
      {"measurement": "Ki", "setting": "μ receptor", "result": 785, "unit": "nM"},
      {"measurement": "IC50", "setting": "μ receptor", "result": 2100, "unit": "nM"},
      {"measurement": "minimal effective dose", "setting": "allodynia model", "result": 0.3, "unit": "mg/kg"},
      {"measurement": "minimal effective dose", "setting": "Mice", "result": 1, "unit": "mg/kg"}
    ]},
    {"smiles": "CCc1cc(N)c2cc(NC(=O)c3ccccc3COc3ccc(Cl)cc3)ccc2n1.Cl", "note": "[Example 49]", "values": [
      {"measurement": "Ki", "setting": "ORL-1 receptor", "result": 2, "unit": "nM"},
      {"measurement": "IC50", "setting": "ORL-1 receptor", "result": 40, "unit": "nM"},
      {"measurement": "Ki", "setting": "μ receptor", "result": 464, "unit": "nM"},
      {"measurement": "IC50", "setting": "μ receptor", "result": 1260, "unit": "nM"},
      {"measurement": "minimal effective dose", "setting": "allodynia model", "result": 0.3, "unit": "mg/kg"},
      {"measurement": "minimal effective dose", "setting": "Mice", "result": 1, "unit": "mg/kg"}
    ]},
    {"smiles": "Cc1cc(N)c2cc(NC(=O)c3ccccc3CCCCCOc3ccccc3)ccc2n1.Cl", "note": "[Example 64]", "values": [
      {"measurement": "Ki", "setting": "ORL-1 receptor", "result": 73, "unit": "nM"},
      {"measurement": "IC50", "setting": "ORL-1 receptor", "result": 1390, "unit": "nM"},
      {"measurement": "Ki", "setting": "μ receptor", "result": 1380, "unit": "nM"},
      {"measurement": "IC50", "setting": "μ receptor", "result": 3610, "unit": "nM"},
      {"measurement": "minimal effective dose", "setting": "allodynia model", "result": "> 3", "unit": "mg/kg"},
      {"measurement": "melting point", "result": 253, "unit": "°C"}
    ]},
    {"smiles": "CCc1ccc(OCc2ccccc2C(=O)Nc2ccc3nc(CC)cc(N)c3c2)c(Cl)c1", "note": "[Example 90]", "values": [
      {"measurement": "Ki", "setting": "ORL-1 receptor", "result": 5, "unit": "nM"},
      {"measurement": "IC50", "setting": "ORL-1 receptor", "result": 110, "unit": "nM"},
      {"measurement": "Ki", "setting": "μ receptor", "result": 442, "unit": "nM"},
      {"measurement": "IC50", "setting": "μ receptor", "result": 1180, "unit": "nM"},
      {"measurement": "minimal effective dose", "setting": "Mice", "result": 3, "unit": "mg/kg"}
    ]},
    {"smiles": "Cc1cc(N)c2cc(NC(=O)c3ccccc3COc3ccc4c(c3)CCO4)ccc2n1.Cl", "note": "[Example 93]", "values": [
      {"measurement": "Ki", "setting": "ORL-1 receptor", "result": 7, "unit": "nM"},
      {"measurement": "IC50", "setting": "ORL-1 receptor", "result": 120, "unit": "nM"},
      {"measurement": "minimal effective dose", "setting": "allodynia model", "result": "> 0.3", "unit": "mg/kg"},
      {"measurement": "melting point", "result": 233, "unit": "°C"}
    ]}
  ]
}
